# In patent US11814367B2, “Inhibitors of glycogen synthase 1 (GYS1) and methods of use thereof” (Maze Therapeutics, Inc., priority 2021, dated 2023):
# Molecular target: hGYS1 enzyme (recombinant hGYS1/GN1 protein) (Homo sapiens (Human), UniProt P13807)
# Test: GYS1 coupled enzyme assay (PK/LDH)
# Format: biochemical
# Settings: hGYS1/GN1 50 nM, UDP-Glucose 0.8 mM, G6P 1 mM; geometric mean of at least 2 runs
# From the text: The GYS1 coupled enzyme assay is a kinetic biochemical assay that indirectly quantifies the rate of glycogen synthesis by coupling the conversion of GYS1 substrate UDP-glucose into UDP with downstream enzymatic reactions. UDP is released from UDP-glucose as glucose monomers are linked into the growing glycogen strand by GYS1. The coupled assay then proceeds with pyruvate kinase utilizing UDP and phospho(enol)pyruvate (PEP) to form pyruvate. Lactate dehydrogenase then converts pyruvate and NADH into lactate and NAD+. Oxidation of NADH to NAD+ can be measured continuously with a plate reader by quantifying the decrease in NADH absorbance at 340 nm over time.
# Compounds that inhibit the hGYS1 enzyme and, subsequently, the downstream conversion of NADH to NAD+, were tested using assay ready plates (black, clear bottom 384 well plates) in a final DMSO reaction volume of 2.5% DMSO. The Assay Buffer contained 50 mM Tris pH 7.5, 2 mM MgCl2, and 100 mM KCl. Fresh stocks of BSA at a final concentration of 0.02% and TCEP at 1 mM were added before splitting buffer into hGYS1 buffer and substrate buffer. To the hGYS1 buffer, rabbit liver glycogen was added at a final concentration of 0.2% glycogen. Glucose-6-Phosphate was added at 1 mM, recombinant hGYS1/GN1 protein was added at 50 nM to the substrate buffer, phosphoenolpyruvate (PEP) was added at 2 mM, UDP-Glucose was added at 0.8 mM, NADH) was added at 0.6 mM, and Pyruvate Kinase/Lactate Dehydrogenase was added at 20 units/mL. The reaction was initiated by mixing hGYS1 buffer and substrate buffer at a 1:1 ratio. Both buffers were plated using a liquid dispensing device with hGYS1 buffer plated first followed by the substrate buffer. Plates were spun briefly to eliminate air bubbles and are immediately read in continuous mode at an absorbance of 340 nm, for 10 time points in one-minute increments, for a total of 10 minutes. The slope from these 10 time points was normalized to the positive and negative control wells. The duplicate % inhibition values are then averaged and fit to a Hill equation for dose response according to the Levenberg-Marquardt algorithm with the Hill equation maximum set to 100 and the minimum set to 0.
# Unless otherwise specified, IC50 values are reported as the geometric mean of at least 2 assay runs on separate days. Each run represents the average of a technical replicate, where each compound was assayed twice in the same plate. […] A superscript “#” symbol in Table 2 indicates results from a single assay run.
# hGYS1 enzyme (recombinant hGYS1/GN1 protein), sequence (P13807 whole entry): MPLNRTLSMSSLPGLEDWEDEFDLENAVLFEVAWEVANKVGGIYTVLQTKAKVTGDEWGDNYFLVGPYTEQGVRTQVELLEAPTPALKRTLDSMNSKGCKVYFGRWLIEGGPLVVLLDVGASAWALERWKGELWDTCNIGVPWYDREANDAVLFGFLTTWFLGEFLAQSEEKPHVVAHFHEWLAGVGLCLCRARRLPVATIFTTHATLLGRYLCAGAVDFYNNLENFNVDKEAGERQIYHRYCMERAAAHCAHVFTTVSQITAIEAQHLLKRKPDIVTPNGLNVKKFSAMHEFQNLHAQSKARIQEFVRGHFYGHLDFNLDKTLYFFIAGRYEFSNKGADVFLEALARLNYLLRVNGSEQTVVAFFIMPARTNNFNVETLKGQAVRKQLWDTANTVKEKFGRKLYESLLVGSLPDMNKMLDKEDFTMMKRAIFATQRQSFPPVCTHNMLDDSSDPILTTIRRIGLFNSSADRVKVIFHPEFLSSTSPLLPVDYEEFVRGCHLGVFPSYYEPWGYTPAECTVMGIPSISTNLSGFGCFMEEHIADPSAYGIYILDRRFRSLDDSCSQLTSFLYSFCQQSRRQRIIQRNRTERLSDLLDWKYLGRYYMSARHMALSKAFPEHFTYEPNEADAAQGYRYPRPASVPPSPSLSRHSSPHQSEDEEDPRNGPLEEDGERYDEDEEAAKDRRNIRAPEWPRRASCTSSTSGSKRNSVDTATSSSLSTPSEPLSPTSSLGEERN
# hGYS1 enzyme (recombinant hGYS1/GN1 protein), sequence (P46976 whole entry partner): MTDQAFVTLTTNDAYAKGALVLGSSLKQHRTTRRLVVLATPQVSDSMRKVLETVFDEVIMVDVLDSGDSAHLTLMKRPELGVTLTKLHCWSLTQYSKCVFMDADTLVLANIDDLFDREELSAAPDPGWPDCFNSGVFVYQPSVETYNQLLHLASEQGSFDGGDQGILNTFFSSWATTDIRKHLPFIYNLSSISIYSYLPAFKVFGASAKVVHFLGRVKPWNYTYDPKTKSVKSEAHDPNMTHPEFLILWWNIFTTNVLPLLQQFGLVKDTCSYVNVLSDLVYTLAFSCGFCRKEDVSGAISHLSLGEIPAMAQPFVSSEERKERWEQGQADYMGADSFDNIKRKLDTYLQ
row,SMILES,IC50 [nM]
1,"CC(=O)N1CCC2(CCCC2C(=O)N2C[C@H](F)C[C@H]2C(=O)N[C@@H](c2ccccc2)c2ccc(C(C)C)cc2)C1 (stereo partly drawn) [Compound 182, (2S,4R)-1-{2-acetyl-2-azaspiro[4.4]nonane-6-carbonyl}-4-fluoro-N-[(S)-phenyl[4-(propan-2-yl)phenyl]methyl]pyrrolidine-2-carboxamide]",748
2,"CC(C)c1ccc([C@@H](NC(=O)[C@@H]2C[C@@H](F)CN2C(=O)C(=O)C2CC2)c2ccccc2)cc1 [Compound 113, (2S,4R)-1-(2-cyclopropyl-2-oxoacetyl)-4-fluoro-N-[(S)-phenyl[4-(propan-2-yl)phenyl]methyl]pyrrolidine-2-carboxamide]",1040
3,"CC(=O)N1C[C@H]2CC[C@@H](C1)[C@@H]2C(=O)N1C[C@H](F)C[C@H]1C(=O)N[C@@H](c1ccccc1)c1ccc(C(C)C)cc1 [Compound 173, (2S,4R)-1-[(1R,5S,8S)-3-acetyl-3-azabicyclo[3.2.1]octane-8-carbonyl]-4-fluoro-N-[(S)-phenyl[4-(propan-2-yl)phenyl]methyl]pyrrolidine-2-carboxamide]",844
4,"CC(C)CNC(=O)C(=O)N1C[C@H](F)C[C@H]1C(=O)N[C@@H](c1ccccc1)c1ccc(C(C)C)cc1 [Compound 111, (2S,4R)-4-fluoro-1-{[(2-methylpropyl)carbamoyl]carbonyl}-N-[(S)-phenyl[4-(propan-2-yl)phenyl]methyl]pyrrolidine-2-carboxamide]",1080
5,"CC(=O)N1[C@H](C)CC[C@H]1C(=O)N[C@@H](c1ccccc1)c1ccc(C(C)C)cc1 [Compound 215, (2S,5R)-1-acetyl-5-methyl-N-[(S)-phenyl[4-(propan-2-yl)phenyl]methyl]pyrrolidine-2-carboxamide]",3770
6,"COCc1oncc1C(=O)N1C[C@H](F)C[C@H]1C(=O)N[C@@H](c1ccccc1)c1ccc(C(C)C)cc1 [Compound 82, (2S,4R)-4-fluoro-1-[5-(methoxymethyl)-1,2-oxazole-4-carbonyl]-N-[(S)-phenyl[4-(propan-2-yl)phenyl]methyl]pyrrolidine-2-carboxamide]",504
7,"CC(C)c1ccc([C@@H](NC(=O)[C@@H]2C[C@@H](F)CN2C(=O)c2ccc3c(c2)NC(=O)CO3)c2ccccc2)cc1 [Compound 122, (2S,4R)-4-fluoro-1-(3-oxo-3,4-dihydro-2H-1,4-benzoxazine-6-carbonyl)-N-[(S)-phenyl[4-(propan-2-yl)phenyl]methyl]pyrrolidine-2-carboxamide]",989
8,"CCc1nc(C(=O)N2C[C@H](F)C[C@H]2C(=O)N[C@@H](c2ccccc2)c2ccc(C(C)C)cc2)co1 [Compound 42, (2S,4R)-1-(2-ethyl-1,3-oxazole-4-carbonyl)-4-fluoro-N-[(S)-phenyl[4-(propan-2-yl)phenyl]methyl]pyrrolidine-2-carboxamide]",495
9,"Cc1ncncc1C(=O)N1C[C@H](F)C[C@H]1C(=O)N[C@@H](c1ccccc1)c1ccc(C(C)C)cc1 [Compound 30, (2S,4R)-4-fluoro-1-(4-methylpyrimidine-5-carbonyl)-N-[(S)-phenyl[4-(propan-2-yl)phenyl]methyl]pyrrolidine-2-carboxamide]",947
10,"CC(=O)N1C[C@]2(C(=O)N3C[C@H](F)C[C@H]3C(=O)N[C@@H](c3ccccc3)c3ccc(C(C)C)cc3)CC1CO2 [Compound 150, (2S,4R)-1-[(1S)-5-acetyl-2-oxa-5-azabicyclo[2.2.1]heptane-1-carbonyl]-4-fluoro-N-[(S)-phenyl[4-(propan-2-yl)phenyl]methyl]pyrrolidine-2-carboxamide]",554
11,"CC(C)c1ccc([C@@H](NC(=O)[C@@H]2C[C@@H](F)CN2C(=O)C(=O)N(C)C)c2ccccc2)cc1 [Compound 115, (2S,4R)-1-[(dimethylcarbamoyl)carbonyl]-4-fluoro-N-[(S)-phenyl[4-(propan-2-yl)phenyl]methyl]pyrrolidine-2-carboxamide]",493
12,"CC(C)c1ccc([C@H](NC(=O)[C@@H]2C[C@@H](F)CN2C(=O)Cc2cnn[nH]2)c2cccc(F)c2)cc1F [Compound 647, (2S,4R)-4-fluoro-N-[(R)-[3-fluoro-4-(propan-2-yl)phenyl](3-fluorophenyl)methyl]-1-[2-(1H-1,2,3-triazol-5-yl)acetyl]pyrrolidine-2-carboxamide]",1640
13,"CC(=O)N1CCO[C@@H](C)[C@@H]1C(=O)N1C[C@H](F)C[C@H]1C(=O)N[C@@H](c1ccccc1)c1ccc(C(C)C)cc1 [Compound 159, (2S,4R)-1-[(2S,3R)-4-acetyl-2-methylmorpholine-3-carbonyl]-4-fluoro-N-[(S)-phenyl[4-(propan-2-yl)phenyl]methyl]pyrrolidine-2-carboxamide]",740
14,"CC(=O)N1C[C@H](F)C[C@H]1C(=O)N[C@H](c1cccc(-c2nnc[nH]2)c1)c1ccc(C(C)C)c(F)n1 (single isomer, unassigned) [Compound 689, (2S,4R)—N—((R) or (S)-(3-(4H-1,2,4-triazol-3-yl)phenyl)(6-fluoro-5-isopropylpyridin-2-yl)methyl)-1-acetyl-4-fluoropyrrolidine-2-carboxamide]",> 10000

# Compounds with a lower IC50, results first:
row,IC50 [nM],SMILES
1,138,"CC(C)c1ccc([C@@H](NC(=O)[C@@H]2C[C@@H](F)CN2C(=O)CCc2ncc[nH]2)c2ccccc2)cc1 [Compound 47, (2S,4R)-4-fluoro-1-[3-(1H-imidazol-2-yl)propanoyl]-N-[(S)-phenyl[4-(propan-2-yl)phenyl]methyl]pyrrolidine-2-carboxamide]"
2,91,"CC(C)c1ccc([C@@H](NC(=O)[C@@H]2C[C@@H](F)CN2C(=O)C(C)n2cccn2)c2ccccc2)cc1 (stereo partly drawn) [Compound 43, (2S,4R)-4-fluoro-N-[(S)-phenyl[4-(propan-2-yl)phenyl]methyl]-1-[2-(1H-pyrazol-1-yl)propanoyl]pyrrolidine-2-carboxamide]"
3,439,"CC(C)c1ccc([C@@H](NC(=O)[C@@H]2C[C@@H](F)CN2C(=O)C(C)(C)c2ccccn2)c2ccccc2)cc1 [Compound 92, (2S,4R)-4-fluoro-1-[2-methyl-2-(pyridin-2-yl)propanoyl]-N-[(S)-phenyl[4-(propan-2-yl)phenyl]methyl]pyrrolidine-2-carboxamide]"
4,97,"CC(C)c1ccc([C@@H](NC(=O)[C@@H]2C[C@@H](F)CN2C(=O)C(O)CO)c2ccccc2)cc1 (stereo partly drawn) [Compound 186, (2S,4R)-1-(2,3-dihydroxypropanoyl)-4-fluoro-N-[(S)-phenyl[4-(propan-2-yl)phenyl]methyl]pyrrolidine-2-carboxamide]"
5,410,"CC(=O)N1C[C@@H]2CC[C@H]1C(C(=O)N1C[C@H](F)C[C@H]1C(=O)N[C@@H](c1ccccc1)c1ccc(C(C)C)cc1)C2 (stereo partly drawn) [Compound 176, (2S,4R)-1-[(1S,4R)-2-acetyl-2-azabicyclo[2.2.2]octane-6-carbonyl]-4-fluoro-N-[(S)-phenyl[4-(propan-2-yl)phenyl]methyl]pyrrolidine-2-carboxamide]"
6,55,"Cc1nc(CC(=O)N2C[C@H](F)C[C@H]2C(=O)N[C@@H](c2ccccc2)c2ccc(C3CC3)c(F)n2)oc1C [Compound 761, (2S,4R)-N-[(S)-(5-cyclopropyl-6-fluoropyridin-2-yl)(phenyl)methyl]-1-[2-(4,5-dimethyl-1,3-oxazol-2-yl)acetyl]-4-fluoropyrrolidine-2-carboxamide]"
7,78,"CC(Oc1cccnc1)C(=O)N1C[C@H](F)C[C@H]1C(=O)N[C@@H](c1ccccc1)c1ccc(C(C)C)cc1 (stereo partly drawn) [Compound 124, (2S,4R)-4-fluoro-N-[(S)-phenyl[4-(propan-2-yl)phenyl]methyl]-1-[2-(pyridin-3-yloxy)propanoyl]pyrrolidine-2-carboxamide]"
8,449,"CC(=O)N1CCCC(C)(C(=O)N2C[C@H](F)C[C@H]2C(=O)N[C@@H](c2ccccc2)c2ccc(C(C)C)cc2)CC1 (stereo partly drawn) [Compound 181, (2S,4R)-1-(1-acetyl-4-methylazepane-4-carbonyl)-4-fluoro-N-[(S)-phenyl[4-(propan-2-yl)phenyl]methyl]pyrrolidine-2-carboxamide]"
9,361,"CC(=O)N1C[C@@H]2[C@@H](C(=O)N3C[C@H](F)C[C@H]3C(=O)N[C@@H](c3ccccc3)c3ccc(C(C)C)cc3)CO[C@@H]2C1 [Compound 165, (2S,4R)-1-[(3R,3aS,6aS)-5-acetyl-hexahydro-2H-furo[2,3-c]pyrrole-3-carbonyl]-4-fluoro-N-[(S)-phenyl[4-(propan-2-yl)phenyl]methyl]pyrrolidine-2-carboxamide]"
